The test system of this test is Diabetic ZDF male rats. The test is described as follows: In vivo animal model to mimic human night time dosing. The conditions noted are these: 30 mg/kg po via gavage in 10% Gelucire 44/14; 360 min after dosing at 14 weeks old, from start of dosing (T=0); p=0.019 versus vehicle controls. The arrangement: species or system rat. Here is the method: Diabetic ZDF male rats (Charles River) were allowed free access to tap water and enriched pelleted chow diet (M-Z Ereich; Art. No. V1185-000; Ssniff R Spezialdiäten GmbH, D-59494, Soest Germany) ad-libitum for 4 weeks until they were 8 weeks old. The animals were housed under a 16 hr/8 hr:dark/light phase (lights on 09:00). As the animals progressed to the diabetic state, weekly blood glucose and insulin measurement were made at the end of the light period (17:00 h) and a blood glucose measurement made at the end of the active (dark) cycle (08:30-09:00 h). When the animals had reached 8 weeks of age, they were trained on a meal paradigm, by removal of food during the light period (09:00-17:00 h), which was maintained for the remainder of the study. After the animals had reached 12 weeks of age, and their diabetic status had been confirmed using the fasted glucose measurements (>8 mM), the animals were divided into groups. […] Blood glucose and insulin concentrations were measured by the glucose oxidase method (Super G Glucose analyzer; Dr. Müller Gerätebau, Freital, Germany) and Elisa technique, respectively, at T=−45 min, before dosing (08:15 h) and then at T=0 min ([…]), T=45 min (09:45 h), T=90 min (10:30 h), T=150 min (11:20 h) and T=360 min (15:00 h) after each weekly successive test compound dose.

With `O=C(N[C@@H](Cc1ccc(F)cc1)C(=O)N1CCC(O)CC1)c1cc2cc(Cl)ncc2[nH]1` [Example 3, 5-chloro-1H-pyrrolo[2,3-c]pyridine-2-carboxylic acid [1-(S)-(4-fluorobenzyl)-2-(4-hydroxypiperidin-1-yl)-2-oxoethyl]amide], the “reduction in blood glucose concentration (mean+/−S.D.)” value stood at 6.28 ± 2.47 mM.
